Data as given in PubChem BioAssay (NCI).
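Growth conditions: 96-well plates. Treatment: test compound, 48 hours, 5 concentrations. Analysis: linear interpolation between bracketing concentrations; unreached endpoints set to highest concentration. The concentration for 50% growth inhibition is given as GI50. TGI marks complete inhibition of growth.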

How the values were obtained:
Test in all cases: growth of human tumour cells (NCI), 48 h
[1] = system: OVCAR-5 ovarian
[2] = system: HOP-62 NSCLC
[3] = system: MOLT-4 leukemia
[4] = system: NCI-H460 lung
[5] = system: SN12C renal
[6] = system: CAKI-1 renal
[7] = system: RPMI-8226 leukemia
[8] = system: BT-549 breast
[9] = system: PC-3 prostate
[10] = system: SK-MEL-2 melanoma

Structure (SMILES)	GI50 [1]	TGI [1]	GI50 [2]	TGI [2]	GI50 [3]	TGI [3]	GI50 [4]	TGI [4]	GI50 [5]	TGI [5]	GI50 [6]	TGI [6]	GI50 [7]	TGI [7]	GI50 [8]	TGI [8]	GI50 [9]	TGI [9]	GI50 [10]	TGI [10]
N=C(N)c1ccc(-c2ccc(-c3ccc(F)cc3)o2)o1	1.66 µM	3.4 µM	1.6 µM	3.25 µM	1.6 µM	4.68 µM	1.76 µM	3.36 µM	1.8 µM	3.65 µM	1.71 µM	3.56 µM	2.48 µM	6.1 µM	2.27 µM	7.19 µM	1.22 µM	2.57 µM	1.76 µM	3.39 µM
Oc1cc(Cl)ccc1Cc1ccc(Cl)cc1O	15.1 µM	31.8 µM	11.7 µM	31.7 µM	9.24 µM	> 100 µM	7 µM	19.4 µM	7.92 µM	20.6 µM	18.2 µM	43 µM	6.01 µM	> 100 µM	4.22 µM	19.1 µM	6.23 µM	83 µM	14.8 µM	38.8 µM
NC1=C(Cl)C(=O)c2ccccc2C1=O		23.7 µM		32 µM		22.4 µM		11 µM		15.9 µM		34.1 µM		43.6 µM		4.19 µM		6 µM		> 44 µM
c1cncc(CNc2ncn[nH]2)c1		> 100 µM		> 100 µM		> 100 µM		> 100 µM		> 100 µM		> 100 µM		> 100 µM		> 100 µM		> 100 µM		> 100 µM
O=[N+]([O-])c1cccc(-c2cc(-c3cc(Br)ccc3O)[nH]n2)c1	3.81 µM	14.9 µM			1.72 µM	4.68 µM	1.9 µM	10.4 µM	3.19 µM	12.4 µM	1.81 µM	5.17 µM	1.47 µM	4.75 µM	1.26 µM	4.61 µM	3.48 µM	7.7 µM	1.99 µM	6.53 µM
O=[N+]([O-])/C=C/c1ccc([N+](=O)[O-])cc1	4.47 µM	15.5 µM	10.9 µM	23.7 µM	5.81 µM	62.5 µM	4.57 µM	22.6 µM	2.37 µM	6.83 µM	4.16 µM	21.1 µM	2.25 µM	5.95 µM	2.1 µM	4.02 µM	5.46 µM	24.8 µM	14.3 µM	28.1 µM
O=C(/C=C\c1ccc2ccccc2n1)c1cc(Cl)ccc1O	14.3 µM	30.5 µM	6.54 µM	20.7 µM	3.12 µM	24.1 µM	16 µM	42.6 µM	9.58 µM	24.4 µM	5.49 µM	21.5 µM	2.15 µM	5.83 µM	4.82 µM	17 µM	6.47 µM	38.2 µM	11.7 µM	45.2 µM
CC(C)=CC1CC(C)C2(CCC3(C)CC4C(C(=O)CC4(C)O)/C(C=O)=C\CC32)O1 (configuration not stated)		0.33 µM		0.274 µM		0.0483 µM		0.283 µM		0.184 µM		0.192 µM		0.0613 µM		0.351 µM		0.14 µM		0.316 µM
COc1cc(-c2n/c(=C\c3c(O)[nH]c4ccccc34)cc3c2=Nc2ccccc2-3)cc(OC)c1OC	4.32 µM	> 100 µM	0.536 µM	> 100 µM	0.528 µM	7.34 µM	0.334 µM	1.76 µM	0.523 µM	> 100 µM		> 100 µM	3.09 µM	> 26.4 µM	0.486 µM	2.47 µM	2.19 µM	> 100 µM	1.41 µM	29.6 µM
Cc1cc(C)c2c(N)c3cccc(C)c3nc2n1	2.1 µM	5.71 µM	1.81 µM	5.03 µM	2.17 µM	10 µM	1.4 µM	4.22 µM	1.61 µM	11.2 µM	2.25 µM	8.35 µM	2.14 µM	6.78 µM	3.48 µM	20.2 µM	2.44 µM	7.61 µM	2.03 µM	4.97 µM
C=C(C)[C@@H]1CC[C@]2(C(=O)NCCNCCNCCN)CC[C@]3(C)[C@H](CC[C@@H]4[C@@]5(C)CCC(=O)C(C)(C)[C@@H]5CC[C@]43C)[C@@H]12	8.78 µM	18.4 µM	7.91 µM	16.6 µM	6.96 µM	31.1 µM	9.4 µM	18.1 µM	7.56 µM	15.3 µM	5.87 µM	13.1 µM	6.78 µM	22 µM	8.91 µM	22.2 µM	6.26 µM	13.1 µM	> 50 µM	> 50 µM
COC(=O)[C@]12CC=C3O[C@@H]4OC5(CCCCC5)O[C@@H]4[C@H]3C1C(=O)C=CC2=O (some centres not stated)		38.8 µM		37.9 µM		21.4 µM		45.5 µM		35.1 µM		30.4 µM		21.6 µM		34.5 µM		52.3 µM		48.4 µM
COC(=O)[C@@H]1CCCN1C(=O)[C@H]1CCCN1C(=O)[C@@H](Cc1c[nH]c2ccccc12)NC(=S)Nc1cc(C(F)(F)F)cc(C(F)(F)F)c1	4.3 µM	18.4 µM	3.25 µM	12.1 µM	2.88 µM	7.98 µM	2.01 µM	4.26 µM	3.14 µM	10.9 µM	2.75 µM	8.99 µM	2.62 µM	7.93 µM	3.52 µM	11.3 µM	1.75 µM	3.98 µM	2.14 µM	3.98 µM
NC(=O)NCCSC1CCCCC1O (configuration not stated)		> 100 µM		> 100 µM		78 µM		> 100 µM		> 100 µM		> 100 µM		> 100 µM		> 100 µM		> 100 µM		> 100 µM
COc1ccc(/C=C\c2cc(OC)c(OC)c(OC)c2)cc1OCC(=O)Nc1nc2ccc(OC(F)(F)F)cc2s1	31.2 µM	> 100 µM	7.09 µM	> 100 µM	4.21 µM	> 100 µM	4.11 µM	> 100 µM	6.42 µM	> 100 µM	4.6 µM	> 100 µM	5.83 µM	> 100 µM	10.5 µM	> 100 µM	5.12 µM	> 100 µM	3.29 µM	> 100 µM
